From patent US9233946B2, “Sulfonamide compounds” (KANCERA AB, priority 2010, dated 2016)

Test system: PANC-1 cells
Test: Quantification of F-2,6-P2 in PANC-1 cells
Format: cell-based
Conditions: Homo sapiens, PANC-1; read-out: IC50 based on quantification of F-2,6-P2
How it was run: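 Endogenous PFKFB3/PFKFB4 activity in PANC-1 cells, 18 h serum/glucose starvation in glucose-free DMEM/F12 with 0.25% FBS, then 1 h compound preincubation (50 and 10 μM, or dose response from 50 μM; 0.5% DMSO) at 37 °C. Glucose stimulation for 2 h, NaOH lysis, F-2,6-P2 quantified by Van Schaftingen coupled enzymatic assay against in-house standard.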

Row | Compound | IC50 [µM]
1 | Cc1c(S(=O)(=O)Nc2cccc(C(=O)O)c2)sc2ccc(Cl)cc12 [Example 38, 3-{[(5-Chloro-3-methyl-1-benzothien-2-yl)sulfonyl]amino}benzoic acid] | 10.1
2 | Cc1c(S(=O)(=O)Nc2cccc(C(=O)O)c2)sc2ccc(C(C)C)cc12 [Example 5, 3-{[(5-Isopropyl-3-methyl-1-benzothien-2-yl)sulfonyl]amino}benzoic acid] | 2.3
